A short description of this experiment: Multiple particle tracking of particles in CF sputum with mucolytic pretreatment. The experiment is classed as in vitro ADME, human. To be noted: for effect on overall ensemble averaged transport rates of nanoparticles: CF mucus, 30 mins post-treatment, 200 nm particles (rhDNase), 100 nm particles (0.4 mM NAC). Here is the method:
Human respiratory sputum was expectorated from male and female CF patients (ages 18-35). CF sputum samples from multiple patients were pooled, freeze-dried, and reconstituted in sputum buffer by stirring at 4° C. to attain a large volume of homogeneous CF sputum. The volume of sputum buffer added to reconstituted CF sputum samples was determined by mass measurements (the reconstituted CF sputum had the equivalent mass of the fresh CF sputum samples).
[…] Mucus samples (200 μL) were centrifuged and a portion of the supernatant (40 μL) was replaced with mucolytic solution or PBS to maintain the initial concentration of mucus solids and eliminate any dilution effects. The displacements of particles in the no treatment (PBS) control were identical to that of particles embedded in an unprocessed mucus sample, which was not centrifuged. The tracking resolution, evaluated by tracking 500 nm polystyrene probes in glycerol, was […].
The mechanism of particle transport over short and long time scales was classified based on the concept of relative change (RC) of effective diffusivity (Deff). In brief, RC values of particles at short and long time scales were calculated by dividing the Deff of a particle at a probed time scale by the Deff at an earlier reference time scale. By calculating RC values for two time regimes (i.e., short and long time scales), one can obtain the transport mode that describes the particle transport properties over different length and temporal scales. RCshort was defined at τref=0.2 s and τprobe=1 s, whereas RClong was found at reference τref=1 s and τprobe=2s. An RC standard curve, which plots the 95% distribution range of Deff for purely Brownian particles over time scale, was generated based on Monte Carlo simulations and confirmed by tracking polystyrene nanoparticles in glycerol (data not shown). The transport modes of particles that display RC values below the […] range for either short or long time scales were classified as hindered, and the rest were classified as diffusive. Immobile particles are defined as those that display an average MSD smaller than the 10-nm resolution at a time scale of 1 s.

These results are taken from patent US20100215580A1, “Compositions and methods for enhancing transport through mucus” (The Johns Hopkins University, priority 2006, published 2010).

Entries after “also recorded” stand apart in the source; their conditions may differ.

For `CC(=O)N[C@@H](CS)C(=O)O` [N-acetyl-L-cysteine], the “enhancement of diffusive fraction of 500 nm PEG-PS compared to no treatment control” value (500 nm PEG-PS particles, CF mucus pretreated with NAC) is 3 fold. Besides, for the setting “500 nm PEG-PS particles, pretreatment of CF mucus with neutralized NAC”, the “increase of transport rates (ensemble geometric mean square displacement) compared to no treatment control (PBS)” value was determined as 10.7 fold. Further, where the note is “listed as NAC”, the “effect on overall ensemble averaged transport rates of nanoparticles” value is “significantly improved; also recorded: increased significantly”.

B1: rhDNase: mucus degrading agent which hydrolyzes linear DNA, used clinically to increase mucus clearance (protein, UniProt P24855 23-282, looked up)
Deoxyribonuclease-1: LKIAAFNIQTFGETKMSNATLVSYIVQILSRYDIALVQEVRDSHLTAVGKLLDNLNQDAPDTYHYVVSEPLGRNSYKERYLFVYRPDQVSAVDSYYYDDGCEPCGNDTFNREPAIVRFFSRFTEVREFAIVPLHAAPGDAVAEIDALYDVYLDVQEKWGLEDVMLMGDFNAGCSYVRPSQWSSIRLWTSPTFQWLIPDSADTTATPTHCAYDRIVVAGMLLRGAVVPDSALPFNFQAAYGLSDQLAQAISDHYPVEVMLK
For the molecule B1, the “effect on overall ensemble averaged transport rates of nanoparticles” value is listed as “reduced the overall ensemble averaged transport rates; also recorded: did not correlate to improved particle transport”.
